The target of one data set is T1, Calmodulin-sensitive adenylate cyclase (Bacillus anthracis) (UniProt P40136).
T1 sequence (whole entry): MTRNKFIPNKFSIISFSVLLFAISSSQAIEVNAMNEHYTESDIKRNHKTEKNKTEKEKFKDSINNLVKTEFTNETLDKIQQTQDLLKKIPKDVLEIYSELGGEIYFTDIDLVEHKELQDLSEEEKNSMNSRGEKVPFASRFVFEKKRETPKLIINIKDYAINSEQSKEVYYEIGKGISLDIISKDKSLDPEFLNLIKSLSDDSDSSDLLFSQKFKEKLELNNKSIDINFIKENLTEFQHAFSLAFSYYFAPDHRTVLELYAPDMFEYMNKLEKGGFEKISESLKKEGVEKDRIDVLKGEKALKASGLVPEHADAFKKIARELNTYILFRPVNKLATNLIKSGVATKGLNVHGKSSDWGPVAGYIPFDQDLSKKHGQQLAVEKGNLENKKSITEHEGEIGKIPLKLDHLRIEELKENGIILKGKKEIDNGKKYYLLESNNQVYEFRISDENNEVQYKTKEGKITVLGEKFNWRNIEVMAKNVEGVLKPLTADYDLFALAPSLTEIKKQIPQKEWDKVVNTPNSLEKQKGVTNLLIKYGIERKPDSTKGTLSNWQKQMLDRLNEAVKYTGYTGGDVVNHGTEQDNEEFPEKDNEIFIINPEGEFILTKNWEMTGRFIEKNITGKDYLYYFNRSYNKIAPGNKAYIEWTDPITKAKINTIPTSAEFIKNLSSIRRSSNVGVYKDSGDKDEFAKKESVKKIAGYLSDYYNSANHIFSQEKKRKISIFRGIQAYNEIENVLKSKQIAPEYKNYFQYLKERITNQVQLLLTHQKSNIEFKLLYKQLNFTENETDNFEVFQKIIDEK
The data set is described as follows: Inactivation of Bacillus anthracis edema factor assessed as inactivation rate constant in presence of CaM incubated for 10 to 240 mins by EnzChek pyrophosphate assay.
Settings: not given
As to `Cc1nc(N)c2ncn(C3CCN(Cc4ccc(S(=O)(=O)F)cc4)CC3)c2n1`, the Kinact worked out at 0.028 min⁻¹.
Still for that read-out and setting: as for `Nc1ncnc2c1ncn2[C@@H]1CCCN(C(=O)c2ccc(S(=O)(=O)F)cc2)C1`, the figure is 0.039 min⁻¹.
In the case of `Cc1cc(OC2CCN(Cc3ccc(S(=O)(=O)F)cc3)CC2)cc(N)n1`, the Kinact was 0.02 min⁻¹.
The same measure, in the same setting: as for `Cc1nc(N)cc(OCCNC(=O)c2ccc(S(=O)(=O)F)cc2)n1`, the figure is 0.158 min⁻¹; as for `Nc1ncnc2c1ncn2CCOC(=O)c1ccc(S(=O)(=O)F)cc1`, 0.011 min⁻¹; as for `Nc1cc(O[C@@H]2CCN(C(=O)c3ccc(S(=O)(=O)F)cc3)C2)ccn1`, 0.008 min⁻¹.
On the same count and under the same terms, with `Nc1cc(OCCCNCc2ccc(S(=O)(=O)F)cc2)ccn1` the figure was 0.063 min⁻¹.
Take `Nc1cc(OC2CCN(C(=O)c3ccc(S(=O)(=O)F)cc3)CC2)ccn1`: the Kinact fell in the range of 0.049 to 0.069 min⁻¹.
`Cc1nc(N)c2cnn(C3CCN(Cc4ccc(S(=O)(=O)F)cc4)CC3)c2n1`: the Kinact worked out at 0.052 min⁻¹.
Take `Nc1ncnc2c1cnn2C1CCN(C(=O)c2ccc(S(=O)(=O)F)cc2)CC1`: the Kinact was 0.26 min⁻¹.

A further data set has as its target T2, Calmodulin-sensitive adenylate cyclase (Bacillus anthracis, UniProt P40136).
T2 sequence (P40136 whole entry): T1 sequence (whole entry)
The data set is described as follows: Inactivation of Bacillus anthracis edema factor in presence of CaM incubated for 10 to 240 mins by EnzChek pyrophosphate assay.
Settings: not given
Take `Cc1nc(N)c2ncn(C3CCN(Cc4ccc(S(=O)(=O)F)cc4)CC3)c2n1`: the Ki amounted to 14.7 µM.
On the same count and under the same terms, as for `Nc1ncnc2c1ncn2[C@@H]1CCCN(C(=O)c2ccc(S(=O)(=O)F)cc2)C1`, the figure is 96.5 µM.
On the same count and under the same terms, as for `Cc1cc(OC2CCN(Cc3ccc(S(=O)(=O)F)cc3)CC2)cc(N)n1`, the figure is 42.2 µM.
The same measure, in the same setting: with `Cc1nc(N)cc(OCCNC(=O)c2ccc(S(=O)(=O)F)cc2)n1` the figure was 286 µM.
As to `Nc1ncnc2c1ncn2CCOC(=O)c1ccc(S(=O)(=O)F)cc1`, the Ki turned out to be 25.9 µM.
The same measure, in the same setting: with `Nc1cc(O[C@@H]2CCN(C(=O)c3ccc(S(=O)(=O)F)cc3)C2)ccn1` the figure was 38.9 µM; with `Nc1cc(OCCCNCc2ccc(S(=O)(=O)F)cc2)ccn1`, 222 µM.
The same measure, in the same setting: with `Cc1nc(N)c2cnn(C3CCN(Cc4ccc(S(=O)(=O)F)cc4)CC3)c2n1` the figure was 4.6 µM; with `Nc1ncnc2c1cnn2C1CCN(C(=O)c2ccc(S(=O)(=O)F)cc2)CC1`, 3.7 µM.

The target of a further data set is T1, Calmodulin-sensitive adenylate cyclase (Bacillus anthracis). As to the kind of experiment: Inactivation of Bacillus anthracis edema factor assessed as Kinact/Ki ratio in presence of CaM incubated for 10 to 240 mins by EnzChek pyrophosphate assay.
Settings: not given
`Cc1nc(N)c2ncn(C3CCN(Cc4ccc(S(=O)(=O)F)cc4)CC3)c2n1`: the Ratio worked out at 31.2.
On the same count and under the same terms, with `Nc1ncnc2c1ncn2[C@@H]1CCCN(C(=O)c2ccc(S(=O)(=O)F)cc2)C1` the figure was 6.7.
On the same count and under the same terms, as for `Cc1cc(OC2CCN(Cc3ccc(S(=O)(=O)F)cc3)CC2)cc(N)n1`, the figure is 7.9; as for `Cc1nc(N)cc(OCCNC(=O)c2ccc(S(=O)(=O)F)cc2)n1`, 9.2; as for `Nc1ncnc2c1ncn2CCOC(=O)c1ccc(S(=O)(=O)F)cc1`, 6.9.
Consider `Nc1cc(O[C@@H]2CCN(C(=O)c3ccc(S(=O)(=O)F)cc3)C2)ccn1`, for which the Ratio stood at 3.5.
In the case of `Nc1cc(OCCCNCc2ccc(S(=O)(=O)F)cc2)ccn1`, the Ratio was found to be 4.7.
Still for that read-out and setting: with `Nc1cc(OC2CCN(C(=O)c3ccc(S(=O)(=O)F)cc3)CC2)ccn1` the figure was 5.8 to 19.3; with `Cc1nc(N)c2cnn(C3CCN(Cc4ccc(S(=O)(=O)F)cc4)CC3)c2n1`, 190.
On the same count and under the same terms, with `Nc1ncnc2c1cnn2C1CCN(C(=O)c2ccc(S(=O)(=O)F)cc2)CC1` the figure was 1160.

The next data set shares this target. As to the kind of experiment: Inactivation of Bacillus anthracis edema factor assessed as Kinact/Ki ratio in presence of CaM incubated for 10 to 240 mins by EnzChek pyrophosphate assay relative to FSBA.
Settings: not given
Regarding `Cc1nc(N)c2ncn(C3CCN(Cc4ccc(S(=O)(=O)F)cc4)CC3)c2n1`, the Ratio turned out to be 2.3.
`Nc1ncnc2c1ncn2[C@@H]1CCCN(C(=O)c2ccc(S(=O)(=O)F)cc2)C1`: the Ratio stood at 0.5.
Still for that read-out and setting: as for `Cc1cc(OC2CCN(Cc3ccc(S(=O)(=O)F)cc3)CC2)cc(N)n1`, the figure is 0.6.
Still for that read-out and setting: with `Cc1nc(N)cc(OCCNC(=O)c2ccc(S(=O)(=O)F)cc2)n1` the figure was 0.7; with `Nc1ncnc2c1ncn2CCOC(=O)c1ccc(S(=O)(=O)F)cc1`, 0.5.
On the same count and under the same terms, as for `Nc1cc(O[C@@H]2CCN(C(=O)c3ccc(S(=O)(=O)F)cc3)C2)ccn1`, the figure is 0.3.
Take `Nc1cc(OCCCNCc2ccc(S(=O)(=O)F)cc2)ccn1`: the Ratio is 0.4.
`Nc1cc(OC2CCN(C(=O)c3ccc(S(=O)(=O)F)cc3)CC2)ccn1`: the Ratio was in the range of 0.4 to 1.4.
Still for that read-out and setting: as for `Cc1nc(N)c2cnn(C3CCN(Cc4ccc(S(=O)(=O)F)cc4)CC3)c2n1`, the figure is 14.2.
The same measure, in the same setting: as for `Nc1ncnc2c1cnn2C1CCN(C(=O)c2ccc(S(=O)(=O)F)cc2)CC1`, the figure is 86.7.

System in a further data set: not listed separately
The data set is described as follows: Cytotoxicity against mouse RAW264.7 cells assessed a reduction in cell viability incubated for 24 hrs in presence of 10% FBS by MTT assay. The class given is cell-based. As to conditions: RAW264.7 cells.
Take `Cc1nc(N)c2ncn(C3CCN(Cc4ccc(S(=O)(=O)F)cc4)CC3)c2n1`: the CC50 at 24 h was more than 100 µM.
Same read-out and setting: as for `Nc1ncnc2c1ncn2[C@@H]1CCCN(C(=O)c2ccc(S(=O)(=O)F)cc2)C1`, the figure is more than 100 µM; as for `Cc1cc(OC2CCN(Cc3ccc(S(=O)(=O)F)cc3)CC2)cc(N)n1`, more than 100 µM; as for `Cc1nc(N)cc(OCCNC(=O)c2ccc(S(=O)(=O)F)cc2)n1`, more than 100 µM.
Still for that read-out and setting: with `Nc1ncnc2c1ncn2CCOC(=O)c1ccc(S(=O)(=O)F)cc1` the figure was more than 100 µM; with `Nc1cc(OCCCNCc2ccc(S(=O)(=O)F)cc2)ccn1`, more than 100 µM; with `Nc1cc(OC2CCN(C(=O)c3ccc(S(=O)(=O)F)cc3)CC2)ccn1`, more than 100 µM.
In the case of `Cc1nc(N)c2cnn(C3CCN(Cc4ccc(S(=O)(=O)F)cc4)CC3)c2n1`, the CC50 at 24 h is more than 100 µM.
For `Nc1ncnc2c1cnn2C1CCN(C(=O)c2ccc(S(=O)(=O)F)cc2)CC1`, the CC50 at 24 h is more than 100 µM.

System in another data set: not listed separately
As to the kind of experiment: Stability in C57BL/6 mouse plasma assessed as half life at 10 uM by LC-MS method. The class given is ADME, cell-free, C57B/6.
Settings: not given
For `CCOC(=O)C1=C[C@]2(CC)CCCN3CCc4c(n1c1ccccc41)[C@@H]32` [VINPOCETINE], the half-life at 10 µM is 786 min.
`Nc1cc(OC2CCN(C(=O)c3ccc(S(=O)(=O)F)cc3)CC2)ccn1`: the half-life at 10 µM was 39.6 min.
Same read-out and setting: as for `Cc1nc(N)c2cnn(C3CCN(Cc4ccc(S(=O)(=O)F)cc4)CC3)c2n1`, the figure is 72 min.

The test system of another data set is RAW264.7. The data set is described as follows: Cytotoxicity against mouse RAW264.7 cells assessed a reduction in cell viability incubated for 24 hrs in absence of 10% FBS by MTT assay. In kind it is cell-based. As to conditions: raw264.7, 24 h.
As for `Cc1nc(N)c2ncn(C3CCN(Cc4ccc(S(=O)(=O)F)cc4)CC3)c2n1`, the Activity result is “Non-Toxic”.
Still for that read-out and setting: as for `Nc1ncnc2c1ncn2[C@@H]1CCCN(C(=O)c2ccc(S(=O)(=O)F)cc2)C1`, the entry is “Non-Toxic”.
On the same count and under the same terms, with `Cc1cc(OC2CCN(Cc3ccc(S(=O)(=O)F)cc3)CC2)cc(N)n1` the entry was “Non-Toxic”; with `Cc1nc(N)cc(OCCNC(=O)c2ccc(S(=O)(=O)F)cc2)n1`, “Non-Toxic”; with `Nc1ncnc2c1ncn2CCOC(=O)c1ccc(S(=O)(=O)F)cc1`, “Non-Toxic”.
Still for that read-out and setting: with `Nc1cc(O[C@@H]2CCN(C(=O)c3ccc(S(=O)(=O)F)cc3)C2)ccn1` the entry was “Non-Toxic”.
`Nc1cc(OCCCNCc2ccc(S(=O)(=O)F)cc2)ccn1`: the Activity result is given as “Non-Toxic”.
Turning to `Nc1cc(OC2CCN(C(=O)c3ccc(S(=O)(=O)F)cc3)CC2)ccn1`, the Activity result is given as “Non-Toxic”.
On the same count and under the same terms, with `Cc1nc(N)c2cnn(C3CCN(Cc4ccc(S(=O)(=O)F)cc4)CC3)c2n1` the entry was “Non-Toxic”; with `Nc1ncnc2c1cnn2C1CCN(C(=O)c2ccc(S(=O)(=O)F)cc2)CC1`, “Non-Toxic”.

(Values after ChEMBL document CHEMBL4177722, “Small molecule inhibitors of anthrax edema factor” (Bioorg Med Chem Lett, 2018).)
